Data on six molecules can be found in patent publication US5536848A, “Bioactive acetogenins and derivatives” (Purdue Research Foundation, priority 1994, dated 1996).

For assay [1], the system named is brine shrimp (Artemia salina Leach). Briefly: Brine shrimp lethality test (BST). The format is in vivo. Conditions: Artemia salina, Table 17; same run; read-out: BST LC50. On the procedure:
(§1) The brine shrimp (Artemia salina Leach) test (BST) was performed as modified to determine LC50 values in μg/ml. Seven-day in vitro cytotoxicity tests against human tumor cell lines were carried out at the Purdue Cancer Center, using standard protocols for A-549 (human lung carcinoma), MCF-7 (human breast carcinoma) and HT-29 (human colon carcinoma) with adriamycin as a positive control. The reported ED50 values in μg/ml (Table 5) were tabulated from the same run in order to facilitate comparison for the SAR's.
(§2) Bioassays. The brine shrimp (Artemia salina Leach) test (BST) was performed as modified. Zhao et al., Phytochemistry, 33, p. 1065 (1993). Seven-day in vitro cytotoxicity tests against human tumor cell lines were carried out at the Purdue Cancer Center, using standard protocols for A-549 (human lung carcinoma), Gu, Z. M.; Fang, X.-P.; Miesbauer, L. R., Smith, D. L.; and McLaughlin, J. L., 30, 31, and 32-Hydroxybullatacinones: Bioactive Terminally-Hydroxylated Annonaceous Acetogenins from Annona bullata., J. Nat. Prod., 1993, 56, 870-876; MCF-7 (human breast carcinoma) McLaughlin, J. L., Chang, C.-J., and Smith, D. L., Simple Bench-Top Bioassays (Brine Shrimp and Potato Discs) for the Discoveries of Plant Antitumor Compounds: A Review of Recent Progress. In Kinghorn, A. D., Balandrin, J. (Eds): "Human Medicinal Agents from Plants", ACS Symposium Series, Washington, D.C., American Chemical Society, 1993, pp. 112-137; and HT-29 (human colon carcinoma), Mclaughlin, J.L., Chang, C.-J., Smith, D.L., "'Bench-Top' Bioassays for the Discovery of Bioactive Natural Products: An Update", in Rahman, Atta-ur- (Ed): "Studies in Natural Product Chemistry", Vol. 9, Amsterdam, Elsevier, 1991, pp. 383-409, with adriamycin as a positive control. The reported values (Table IV) were tabulated from the same run in order to facilitate comparison for the SAR's.
(§3) Bioassay. The extracts, fractions, and isolates were routinely evaluated for lethality to brine shrimp larvae (BST). Cytotoxicities against human solid tumor cells were measured at the Purdue Cell Culture Laboratory, Purdue Cancer Center, for the A-549 lung carcinoma, MCF-7 breast carcinoma, and HT-29 colon adenocarcinoma.
(§4) The brine shrimp lethality test (BST), on newly hatched naupleii, was performed in our laboratory as previously described. McLaughlin, Methods in Plant Biochemistry, Vol. 6, Hostettmann, Academic Press, London, pp. 1-33 (1991). Seven day cytotoxicities against human solid tumor cells were measured at the Cell Culture Laboratory, Purdue Cancer Center, for the A-549 lung carcinoma, MCF-7 breast carcinoma, and HT-29 colon adenocarcinoma. The respiratory functions of rat liver mitochondria (RMB) were measured polarographically by determination of their rates of oxygen consumption after the addition of acetogenins or their derivatives.

Another assay concerns rat liver mitochondria. Nature of the assay: Rat mitochondrial bioassay (RMB), inhibition of oxygen uptake. The format is biochemical. Particulars: Table 17; oxygen consumption of rat liver mitochondria; parent and acetal derivative in the same run. The method, then: as §4
The oxidative phosphorylation pathway (or electron transport chain) is responsible for oxidizing NADH to NAD^+ and producing ATP from ADP and phosphate within the mitochondria. There are five enzyme complexes in this pathway: NADH-ubiquinone reductase (complex I), succinate-ubiquinone reductase (complex II), ubiquinone-cytochrome c reductase (complex III), cytochrome c oxidase (complex IV) and the F0 F1 -ATPase complex (complex V). The end point of the oxidative phosphorylation pathway is the reduction of oxygen (O2) to water in the mitochondria (thus, it is also called respiration), coupled with the synthesis of ATP by complex V. State 4 respiration is the oxidation of substrates in the absence of a phosphate acceptor (e.g., ADP). State 3 respiration occurs when a phosphate acceptor is present and oxygen utilization increases. The ratio of State 3 respiration to State 4 respiration is the respiratory control ratio (RCR).
The process of respiration can be measured by using an oxygen electrode to detect the amount of oxygen present in the assay cell. If respiration is occurring normally, the concentration of oxygen should slowly decrease as it is reduced to water. However, if there is some type of inhibition of oxidative phosphorylation occurring, the oxygen level will no longer decrease at the same rate. This rate of oxygen usage can be visualized by a chart recorder connected to the oxygen electrode. At normal respiration,a decreasing baseline slope will be established. During inhibition, however, the baseline slope should decrease (i.e., the slope will move closer to zero), since the oxygen present is no longer being reduced. In other words, the oxygen concentration in the assay cell is no longer decreasing at the same rate as in normal respiration. Furthermore, inhibition sites at specific complexes can be determined by competitive inhibition studies. This is accomplished by addition of a known inhibitor of, e.g., complex I, followed by the new respiration-inhibiting compound. […] This can be verified by trying inhibitors at other sites and by reversing the order, i.e., adding the new compound and then the known inhibitor.
The method for isolating rat liver mitochondria essentially followed the published methodology. Ahammadsahib et al., Life Sciences, 53, pgs. 1113-1120 (1993). The isolation buffer used for the isolation of mitochondria from rat liver consisted of 4 mM Tris-HC1, 0.5 mM EDTA, and 250 mM sucrose at a pH of 7.4. The isolation buffer was kept at refrigeration temperature at all times by storing on ice during the whole procedure. The rats were supplied by Sprague-Dawley, were male, and weighed approximately 300-320 grams. They were sacrificed with carbon dioxide, and the livers were removed and immediately placed in the isolation buffer on ice. The livers were then rinsed with several washings of cold buffer, cut into pieces, and homogenized. The homogenates were then centrifuged (Sorvall Superspeed RC2-B, 4° C) for 10 minutes at approximately 2000 rpms; the supernatant was next centrifuged for 20 minutes at approximately 9000 rpms. The pellet was reserved and resuspended in 2 ml of assay buffer with a glass pipet. The assay buffer consisted of 100 mM KC1, 5 mM KH2 PO4, 1 mM EDTA, 5 mM glutamate, 1 mM malate, and 20 mM Tris-HCl at a pH of 7.4 and was stored at room temperature. […]

In assay [2] the test system is A-549 (human lung carcinoma). Nature of the assay: Seven-day in vitro cytotoxicity, A-549. The format is cell-based. Particulars: A549, 168 h, read-out: A-549 ED50. The method, then: as §1, §2, §3, §4
The test system of assay [3] is MCF-7 (human breast carcinoma). Briefly: Seven-day in vitro cytotoxicity, MCF-7. Particulars: MCF7, 168 h. The format is cell-based. The method, then:
as §1, §2, §3, §4

In assay [4] the test system is HT-29 (human colon adenocarcinoma). Nature of the assay: Seven-day in vitro cytotoxicity, HT-29. The format is cell-based. Particulars: HT-29, 168 h. On the procedure: as §1, §2, §3, §4
Setting [5] is: Table 17, seven day cytotoxicity, same run.
[6] abbreviates: Table 17, seven day cytotoxicity, same run, read-out: MCF-7 ED50.
Where [7] appears, read: Table 17, seven day cytotoxicity, same run, read-out: HT-29 ED50.
Where [8] appears, read: read-out: MCF-7 ED50, Table 17, seven day cytotoxicity, same run.

Values after ≈ are worked out from the molar mass of the structure shown. Like-named read-outs stand apart in the source and are kept apart here.

With `CCCCCCCCCCCCCC[C@H]1OCO[C@@H]1CC[C@H](O)[C@@H]1CC[C@@H](CCCCC[C@@H](O)CC2=C[C@H](C)OC2=O)O1` [Compound 12, 17,18-formaldehyde acetal derivative], the LC50 in assay [1] came to 7.5 ng/mL (≈ 12.3 nM). Besides, the “RMB IC50” value with rat liver mitochondria amounted to 290.3 n moles/Lt/mg protein. Also, the results for the IC50 in assay [2] (setting [5]) and in assay [3] (setting [6]) were 69.5 ng/mL (≈ 114 nM) and 268 ng/mL (≈ 440 nM), respectively.

Consider `CCCCCC[C@H]1CCC[C@@H]([C@H]2CC[C@H]([C@H]3CC[C@@H]([C@@H]4CC[C@@H](CCCCCCCCCC5=C[C@H](C)OC5=O)O4)OCO3)O2)OCO1` [Compound 14, 16,19- and 24,28-bis-formaldehyde acetal derivative], for which, in assay [1], the LC50 was 10200 ng/mL (≈ 15400 nM). Further, the IC50 in assay [2] (setting [5]) was determined as 1780 ng/mL (≈ 2680 nM); in assay [3] (setting [6]), 1 ng/mL (≈ 1.51 nM); in assay [4] (setting [7]), 0.000289 ng/mL (≈ 0.000436 nM).

As for `CCCCCCCCCC[C@H](O)[C@H]1CC[C@H]([C@H](O)CC[C@H](O)[C@@H]2CC[C@@H](CCCCCCC[C@@H](O)CC3=C[C@H](C)OC3=O)O2)O1` [Compound 18, Bullatalicin, reference compound], the LC50 in assay [1] was determined as 1200 ng/mL (≈ 1880 nM). For the same molecule, the “RMB IC50” value with rat liver mitochondria is 19.2 n moles/Lt/mg protein. Also, the IC50 amounted to 262 ng/mL (≈ 410 nM) in assay [3] (setting [6]) and 6.48e-05 ng/mL (≈ 0.000101 nM) in assay [4] (setting [7]).

Regarding `CCCCCCCCCC[C@@H](O)[C@H]1CC[C@H]([C@H](O)CC[C@H](O)[C@@H]2CC[C@@H](CCCCCCC[C@@H]3CC(CC(C)=O)C(=O)O3)O2)O1` (stereo partly drawn) [Compound 24, (2,4-Cis and trans)bullatanocinones, reference compound], in assay [1], the median lethal concentration (LC50) came to 280 ng/mL (≈ 438 nM). Also, the “RMB IC50” value in the assay with rat liver mitochondria is 61.1 n moles/Lt/mg protein. For the same molecule, the IC50 was determined as 0.643 ng/mL (≈ 1.01 nM) in assay [2]; 293 ng/mL (≈ 459 nM) in assay [3] (setting [8]); 2.34e-05 ng/mL (≈ 3.66e-05 nM) in assay [4] (read-out: HT-29 ED50, Table 17, seven day cytotoxicity, same run).

Consider `CCCCCCCCCC[C@@H](O)[C@H]1CC[C@H]([C@H]2CC[C@@H]([C@@H]3CC[C@@H](CCCCCCC[C@@H]4CC(CC(C)=O)C(=O)O4)O3)OCO2)O1` (stereo partly drawn) [Compound 25, 16,19-Formaldehyde acetal derivatives of (2,4-cis and trans)-bullatanocinones], for which the LC50 in assay [1] is 15 ng/mL (≈ 23 nM). Besides, the “RMB IC50” value in the assay on rat liver mitochondria worked out at 28.3 n moles/Lt/mg protein. The IC50 was determined as 0.0677 ng/mL (≈ 0.104 nM) in assay [2] (setting [5]) and 1280 ng/mL (≈ 1970 nM) in assay [3] (setting [6]).

As to `CCCCCCCCCC[C@H](O)[C@H]1CC[C@H]([C@H](O)CC[C@H](O)[C@@H]2CC[C@@H](CCCCCCC[C@@H]3CC(CC(C)=O)C(=O)O3)O2)O1` (stereo partly drawn) [Compound 26, (2,4-Cis and trans)-bullatalicinones, reference compound], the LC50 in assay [1] came out at 470 ng/mL (≈ 736 nM). The “RMB IC50” value with rat liver mitochondria is listed as 23.0 n moles/Lt/mg protein. The IC50 was 0.0562 ng/mL (≈ 0.088 nM) in assay [2] and 1.57 ng/mL (≈ 2.46 nM) in assay [3] (setting [8]).
